Test results reported in US8926966B1 (Regents of the University of California, priority 1990, dated 2015).

Tested on: IDDM associated autoantibodies in sera
Assay: ELISA of sera on plate-bound human GAD65 peptides
Format: binding
Settings: for number of IDDM (at risk, pre-IDDM, at onset) patients positive (X) for the peptide (unlabelled sum line): IDDM sera of Table 11
Description: Patient sera and most control sera were those used in a previous study (Kaufman, et al., J. Clin. Investigation, supra) All samples were coded and tested in a blind manner. Peptides were synthesized using an automatic instrument (Applied Biosystems, Foster City, Calif.) and standard conditions. Peptides were dissolved in 60 mM sodium bicarbonate buffer (pH 9.6) at 20 ug/ml and 100 ul of each was added to duplicated wells of a 96 well Nunc-Immuno Plate. Peptides were allowed to bind at 4° C. overnight. The plates were then washed three times with PBS+0.1% Tween 20 (wash buffer), after which the plates were pre-absorbed with 3% BSA in sodium bicarbonate buffer for 0.5 hours at 37° C., or at room temperature overnight. The plates were then washed 5 times with the above wash buffer. 100 ul of serum at a 1/300 dilution in PBS+0.1% Tween 20 and 1% BSA was added to each well and antibodies were allowed to bind for 1 hour at 37° C. The plates were washed 5 times with wash buffer. 100 ul of a 1/600 dilution of HRP-goat anti-human IgG (BRL, Gaithersberg, Md.) was added to each well and allowed to bind for 1 hour at 37° C. The plates were then washed 7 times and 100 ul of substrate buffer was added to each well for 30 minutes at room temperature. The color development was measured at 410 nm using an ELISA plate reader (ICN, Biomedicals, Costa Mesa, Calif.). Positive sera were defined as: OD410 of the sample/negative control ≧3.0.

[1] = IDDM At Onset serum 048, 1/300 dilution
[2] = IDDM At Onset serum 291, 1/300 dilution
[3] = IDDM At Onset serum 705, 1/300 dilution
[4] = IDDM At Onset serum S.H., 1/300 dilution
[5] = IDDM At Risk serum 052, 1/300 dilution
[6] = IDDM At Risk serum 356, 1/300 dilution
[7] = IDDM At Risk serum 825, 1/300 dilution
[8] = IDDM At Risk serum L.I., 1/300 dilution
[9] = Pre-IDDM serum 723, 1/300 dilution
[10] = Pre-IDDM serum B.Y. (1), 1/300 dilution
[11] = Pre-IDDM serum B.Y. (2), 1/300 dilution
[12] = Pre-IDDM serum J.A., 1/300 dilution
[13] = Pre-IDDM serum J.B. (1), 1/300 dilution
[14] = Pre-IDDM serum J.B. (2), 1/300 dilution
[15] = Pre-IDDM serum P.T. (1), 1/300 dilution
[16] = Pre-IDDM serum P.T. (2), 1/300 dilution
[17] = Pre-IDDM serum R.S. (1), 1/300 dilution
[18] = Pre-IDDM serum R.S. (2), 1/300 dilution
[19] = control serum 1688, 1/300 dilution
[20] = control serum 4380, 1/300 dilution
[21] = control serum 5620, 1/300 dilution
[22] = control serum 5748, 1/300 dilution
[23] = control serum A.P., 1/300 dilution
[24] = control serum FA2, 1/300 dilution
[25] = control serum FA9, 1/300 dilution
[26] = control serum FA11, 1/300 dilution
[27] = control serum H.B., 1/300 dilution
[28] = control serum P.T., 1/300 dilution
[29] = control serum S.M., 1/300 dilution

In the case of DICKKYKIWMHVDAAWGGGLLMS [Peptide 24], the “immunoreactivity by both control and patient sera” value is reported as “often positive”, the “immunoreactivity of serum with GAD65 peptide” value (“immunoreactivity of serum” below) [1] is reported as “X (X = positive for immunoreactivity as defined by 00/background^3.0)” and the “immunoreactivity of serum” value [2] is reported as “X (X = positive for immunoreactivity as defined by 00/background^3.0)”. The “immunoreactivity of serum” value [3] was “X (X = positive for immunoreactivity as defined by 00/background^3.0)”, the “immunoreactivity of serum” value [4] was “X (X = positive for immunoreactivity as defined by 00/background^3.0)” and the “immunoreactivity of serum” value [5] was “X (X = positive for immunoreactivity as defined by 00/background^3.0)”. For the same sequence, the “immunoreactivity of serum” value [6] was “X (X = positive for immunoreactivity as defined by 00/background^3.0)”, the “immunoreactivity of serum” value [7] was “X (X = positive for immunoreactivity as defined by 00/background^3.0)” and the “immunoreactivity of serum” value [8] was “X (X = positive for immunoreactivity as defined by 00/background^3.0)”. The “immunoreactivity of serum” value [9] was “X (X = positive for immunoreactivity as defined by 00/background^3.0)”, the “immunoreactivity of serum” value [10] was “X (X = positive for immunoreactivity as defined by 00/background^3.0)” and the “immunoreactivity of serum” value [11] was “X (X = positive for immunoreactivity as defined by 00/background^3.0)”. The “immunoreactivity of serum” value [12] was “X (X = positive for immunoreactivity as defined by 00/background^3.0)”, the “immunoreactivity of serum” value [13] was “X (X = positive for immunoreactivity as defined by 00/background^3.0)” and the “immunoreactivity of serum” value [14] was “X (X = positive for immunoreactivity as defined by 00/background^3.0)”. For the same sequence, the “immunoreactivity of serum” value [15] was “X (X = positive for immunoreactivity as defined by 00/background^3.0)”, the “immunoreactivity of serum” value [16] was “X (X = positive for immunoreactivity as defined by 00/background^3.0)” and the “immunoreactivity of serum” value [17] was “X (X = positive for immunoreactivity as defined by 00/background^3.0)”. The “immunoreactivity of serum” value [18] was “X (X = positive for immunoreactivity as defined by 00/background^3.0)”, the “immunoreactivity of serum” value [19] was “X (X = positive for immunoreactivity as defined by 00/background^3.0)” and the “immunoreactivity of serum” value [20] was “X (X = positive for immunoreactivity as defined by 00/background^3.0)”. For the same sequence, the “immunoreactivity of serum” value [21] was “X (X = positive for immunoreactivity as defined by 00/background^3.0)”, the “immunoreactivity of serum” value [22] was “X (X = positive for immunoreactivity as defined by 00/background^3.0)” and the “immunoreactivity of serum” value [23] was “X (X = positive for immunoreactivity as defined by 00/background^3.0)”. The “immunoreactivity of serum” value [24] was “X (X = positive for immunoreactivity as defined by 00/background^3.0)”, the “immunoreactivity of serum” value (control serum FA8, 1/300 dilution) was “X (X = positive for immunoreactivity as defined by 00/background^3.0)” and the “immunoreactivity of serum” value [25] was “X (X = positive for immunoreactivity as defined by 00/background^3.0)”. For the same sequence, the “immunoreactivity of serum” value [26] was “X (X = positive for immunoreactivity as defined by 00/background^3.0)”, the “immunoreactivity of serum” value (control serum FA12, 1/300 dilution) was “X (X = positive for immunoreactivity as defined by 00/background^3.0)” and the “immunoreactivity of serum” value [27] was “X (X = positive for immunoreactivity as defined by 00/background^3.0)”. For the same sequence, the “immunoreactivity of serum” value [28] was “X (X = positive for immunoreactivity as defined by 00/background^3.0)” and the “immunoreactivity of serum” value [29] was “X (X = positive for immunoreactivity as defined by 00/background^3.0)”.

With QPPRAAARKAACACDQKPCSC [Peptide 5] the “immunoreactivity by both control and patient sera” value was “often positive”, the “immunoreactivity of serum” value [1] was “X (X = positive for immunoreactivity as defined by 00/background^3.0)” and the “immunoreactivity of serum” value [2] was “X (X = positive for immunoreactivity as defined by 00/background^3.0)”. The “immunoreactivity of serum” value [3] was “X (X = positive for immunoreactivity as defined by 00/background^3.0)”, the “immunoreactivity of serum” value [4] was “X (X = positive for immunoreactivity as defined by 00/background^3.0)” and the “immunoreactivity of serum” value [5] was “X (X = positive for immunoreactivity as defined by 00/background^3.0)”. The “immunoreactivity of serum” value [6] was “X (X = positive for immunoreactivity as defined by 00/background^3.0)”, the “immunoreactivity of serum” value [7] was “X (X = positive for immunoreactivity as defined by 00/background^3.0)” and the “immunoreactivity of serum” value [8] was “X (X = positive for immunoreactivity as defined by 00/background^3.0)”. For the same sequence, the “immunoreactivity of serum” value [9] was “X (X = positive for immunoreactivity as defined by 00/background^3.0)”, the “immunoreactivity of serum” value [10] was “X (X = positive for immunoreactivity as defined by 00/background^3.0)” and the “immunoreactivity of serum” value [11] was “X (X = positive for immunoreactivity as defined by 00/background^3.0)”. For the same sequence, the “immunoreactivity of serum” value [12] was “X (X = positive for immunoreactivity as defined by 00/background^3.0)”, the “immunoreactivity of serum” value [13] was “b (b = borderline response (00/background ?2.5-2.9).)” and the “immunoreactivity of serum” value [14] was “X (X = positive for immunoreactivity as defined by 00/background^3.0)”. The “immunoreactivity of serum” value [15] was “X (X = positive for immunoreactivity as defined by 00/background^3.0)”, the “immunoreactivity of serum” value [16] was “X (X = positive for immunoreactivity as defined by 00/background^3.0)” and the “immunoreactivity of serum” value [17] was “X (X = positive for immunoreactivity as defined by 00/background^3.0)”. For the same sequence, the “immunoreactivity of serum” value [18] was “X (X = positive for immunoreactivity as defined by 00/background^3.0)”, the “immunoreactivity of serum” value [19] was “b (b = borderline response (00/background ?2.5-2.9).)” and the “immunoreactivity of serum” value [20] was “X (X = positive for immunoreactivity as defined by 00/background^3.0)”. For the same sequence, the “immunoreactivity of serum” value [21] was “X (X = positive for immunoreactivity as defined by 00/background^3.0)”, the “immunoreactivity of serum” value [22] was “X (X = positive for immunoreactivity as defined by 00/background^3.0)” and the “immunoreactivity of serum” value [23] was “X (X = positive for immunoreactivity as defined by 00/background^3.0)”. For the same sequence, the “immunoreactivity of serum” value [24] was “X (X = positive for immunoreactivity as defined by 00/background^3.0)”, the “immunoreactivity of serum” value [25] was “X (X = positive for immunoreactivity as defined by 00/background^3.0)” and the “immunoreactivity of serum” value [26] was “X (X = positive for immunoreactivity as defined by 00/background^3.0)”. The “immunoreactivity of serum” value [27] was “b (b = borderline response (00/background ?2.5-2.9).)”, the “immunoreactivity of serum” value [28] was “X (X = positive for immunoreactivity as defined by 00/background^3.0)” and the “immunoreactivity of serum” value [29] was “X (X = positive for immunoreactivity as defined by 00/background^3.0)”.

In the case of VNFFRMVISNPAATHQDIDF [Peptide 37], the “immunoreactivity of serum” value [3] is reported as “X (X = positive for immunoreactivity as defined by 00/background^3.0)”, the “number of IDDM (at risk, pre-IDDM, at onset) patients positive (X) for the peptide (unlabelled sum line)” value (shortened to “number of IDDM”) is reported as 2 and the “immunoreactivity of serum” value [9] is reported as “X (X = positive for immunoreactivity as defined by 00/background^3.0)”.

With ERANSVTWNPHKMMGVPLQC [Peptide 26] the “immunoreactivity of serum” value [2] was “X (X = positive for immunoreactivity as defined by 00/background^3.0)”, the “number of IDDM” value was 1 and the “immunoreactivity of serum” value [21] was “b (b = borderline response (00/background ?2.5-2.9).)”.

With AALGIGTDSVILIKCDERGK [Peptide 20] the “controls whose sera recognized the peptide” value (13 control sera) was “none”, the “immunoreactivity of serum” value [1] was “X (X = positive for immunoreactivity as defined by 00/background^3.0)” and the “immunoreactivity of serum” value [2] was “X (X = positive for immunoreactivity as defined by 00/background^3.0)”. The “immunoreactivity of serum” value [3] was “X (X = positive for immunoreactivity as defined by 00/background^3.0)”, the “immunoreactivity of serum” value [4] was “X (X = positive for immunoreactivity as defined by 00/background^3.0)” and the “immunoreactivity of serum” value [5] was “X (X = positive for immunoreactivity as defined by 00/background^3.0)”. The “immunoreactivity of serum” value [8] was “b (b = borderline response (00/background ?2.5-2.9).)”, the “number of IDDM” value was 7 and the “immunoreactivity of serum” value [9] was “X (X = positive for immunoreactivity as defined by 00/background^3.0)”. The “patients whose sera recognized the peptide” value (patients previously shown to be 64K positive) was 6/8.

For EYVTLKKMREIIGWPGGSGD [Peptide 15], the “immunoreactivity of serum” value [5] was “b (b = borderline response (00/background ?2.5-2.9).)”.

With HATDLLPACDGERPTLAFLQ [Peptide 7] the “immunoreactivity of serum” value [2] was “b (b = borderline response (00/background ?2.5-2.9).)”, the “immunoreactivity of serum” value [13] was “b (b = borderline response (00/background ?2.5-2.9).)” and the “immunoreactivity of serum” value [14] was “b (b = borderline response (00/background ?2.5-2.9).)”. The “immunoreactivity of serum” value [16] was “b (b = borderline response (00/background ?2.5-2.9).)”.
